From US6509367B1 (priority 2001, dated 2003)
Like-named read-outs stand apart in the source and are kept apart here.

How the values were obtained:
mice [1] = assay: Spontaneous (locomotor) activity in mice, compound alone (agonism test); type: in vivo; details: for ED50 / SA: > dose, 50% activity not achieved at this highest dose tested: mice, i.v.; for Max stim of spontaneous locomotor activity, Compound Alone (in words): at the dose(s) [mg/kg] given in parentheses in the cell; for Max stim of spontaneous locomotor activity, Compound Alone: at 1 mg/kg i.v.
Procedure: (§1) Male ICR mice (25-32 g), purchased from Harlan (Dublin, Va.), were housed in groups of five. All animals were kept in a temperature-controlled (20-22° C.) environment with a 12-hour light-dark cycle (lights on at 7 a.m.). Separate mice were used for testing each drug dose in the in vivo behavioral procedures. The mice were maintained on a […] light: dark cycle, and received food and water ad libitum. Brain tissue for binding studies was obtained from male Sprague-Dawley rats (150-200 g) purchased from Harlan Laboratories (Dublin, Va.).
(§2) Measurement of spontaneous activity in mice occurred in standard activity chambers interfaced with a Digiscan Animal Activity Monitor (Omnitech Electronics, Inc., Columbus, Ohio). A standard tail-flick apparatus (described by Dewey et al., 1970) and a digital thermometer (Fisher Scientific, Pittsburgh, Pa.) were used to measure antinociception and rectal temperature, respectively.
(§3) All drugs were administered to the mice intravenously (i.v.) in the tail vein at a volume of 0.1 ml/10 g.
(§4) Maximum latency of 10 sec was used.

mice [2] = assay: Tail-flick antinociception in mice, compound alone (agonism test); type: in vivo; details: for ED50: Mus musculus, iv
Procedure: as §1, §2, §3, §4

CB1 receptor = CB1 receptor (Rattus norvegicus, UniProt P20272); assay: biochemical; type: binding; details: for Ki: 1 nM [3H] CP 55,940, rat whole brain P2 membranes, 30° C. for 1 hr; for CB1 binding affinity, fold decrease on shortening the n-pentyl amide: compared to O-1269
Chain of CB1 receptor (P20272 whole entry): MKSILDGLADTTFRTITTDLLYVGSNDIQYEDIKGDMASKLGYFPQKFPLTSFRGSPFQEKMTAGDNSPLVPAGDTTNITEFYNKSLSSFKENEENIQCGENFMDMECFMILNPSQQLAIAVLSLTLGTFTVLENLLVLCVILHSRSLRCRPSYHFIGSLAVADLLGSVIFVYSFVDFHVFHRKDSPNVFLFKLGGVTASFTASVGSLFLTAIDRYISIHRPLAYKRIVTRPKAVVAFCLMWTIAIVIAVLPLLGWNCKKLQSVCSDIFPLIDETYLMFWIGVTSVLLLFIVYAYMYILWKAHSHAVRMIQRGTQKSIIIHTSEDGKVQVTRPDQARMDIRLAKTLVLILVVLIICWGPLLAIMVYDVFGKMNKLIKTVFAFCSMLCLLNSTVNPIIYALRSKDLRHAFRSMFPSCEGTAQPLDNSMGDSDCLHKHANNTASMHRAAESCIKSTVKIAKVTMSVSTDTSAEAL
Procedure: as §1
All assays, as described briefly below, were performed in triplicate, and the results represent the combined data from three to six individual experiments. Following decapitation and rapid removal of the brain, whole brain was homogenized and centrifuged. The resulting pellet was termed P1. The supernatant was saved and combined with the two subsequent supernatants obtained from washing of the P1 pellet. The combined supernatant fractions were centrifuged, resulting in the P2 pellet. After further incubation and centrifuging, this pellet was resuspended in assay buffer to a protein concentration of approximately 2 mg/ml. The membrane preparation was quickly frozen in a bath solution of dry ice and 2-methylbutane (Sigma Chemical Co., St. Louis, Mo.), then stored at −80° C. for no more than 2 weeks. […] Binding was initiated by the addition of 150 μg of P2 membrane to test tubes containing 1 nM of [3H] […] Following incubation at 30° C. for 1 hr, binding was terminated by addition of ice-cold buffer and vacuum filtration through pretreated filters in a 12-well sampling manifold (Millipore, Bedford, Mass.). After washing, filters were placed into plastic scintillation vials (Packard, Downer Grove, Ill.) and shaken. The quantity of radioactivity present was determined by liquid scintillation spectrometry.

mice [3] = assay: Rectal temperature (hypothermia) in mice, compound alone (agonism test); type: in vivo; details: for ED50: Mus musculus, iv
Procedure: as §1, §2, §3, §4

mice [4] = assay: Spontaneous activity in mice, compound in combination with 3 mg/kg Δ^9-THC (antagonism test); type: in vivo; details: for SA: maximum % antagonism of 3 mg/kg Δ^9-THC: analog 10 min before Δ^9-THC
Procedure: as §1, §2, §3, §4

[5] = Mus musculus, iv, 95% confidence limits in parentheses, * = estimated ED50, dose-effect curve not linear, read-out: SA (suppression of spontaneous activity) ED50
[6] = 20 min, i.v., 20 min post-injection, 95% confidence limits in parentheses, * = estimated ED50, dose-effect curve not linear, read-out: TF (tail flick, % MPE) ED50
[7] = 0.5 h, i.v., 30 min post-injection, 95% confidence limits in parentheses, read-out: RT (rectal temperature) ED50

Compound	ED50 (mice [1]; [5]) [µmol/kg]	Max stim of spontaneous locomotor activity, Compound Alone (in words) (mice [1])	ED50 (mice [2]; [6]) [µmol/kg]	Ki (CB1 receptor; read-out: Ki) [nM]	CB1 binding affinity, fold decrease on shortening the n-pentyl amide (CB1 receptor) [fold]	ED50 (mice [3]; [7]) [µmol/kg]	Max stim of spontaneous locomotor activity, Compound Alone (mice [1])	SA: > dose, 50% activity not achieved at this highest dose tested (mice [1]) [mg/kg]	TF: > dose, 50% activity not achieved at this highest dose tested (mice [2]; i.v.) [mg/kg]	RT: > dose, 50% activity not achieved at this highest dose tested (mice [3]; i.v.) [mg/kg]	other results
Cc1c(C(=O)NCCF)nn(-c2ccc(Cl)cc2Cl)c1-c1ccc(Cl)cc1 [Compound O-1398, N-(2-fluoroethyl)-5-(4-chlorophenyl)-1-(2,4-dichlorophenyl)-4-methyl-1H-pyrazol-3-carboxamide]	7	None (3, 10 & 30)	13	852 ± 175	27	8					inhibition in vivo at 10 mg/kg (mice [1]; Mus musculus, iv, at 10 mg/kg i.v., read-out: Max % inhibit of spontaneous locomotor activity, Compound Alone): 97%; CB1 binding affinity, further fold reduction (CB1 receptor; compared to the n-propyl compound O-1399): 5 fold
CCCNC(=O)c1nn(-c2ccc(Cl)cc2Cl)c(-c2ccc(Cl)cc2)c1C [Compound O-1399, N-(n-propyl)-5-(4-chlorophenyl)-1-(2,4-dichlorophenyl)-4-methyl-1H-pyrazole-3-carboxamide]	9	None (3, 10 & 30)	24		5	10					inhibition in vivo at 30 mg/kg (mice [1]; Mus musculus, iv, at 30 mg/kg i.v., read-out: Max % inhibit of spontaneous locomotor activity, Compound Alone): 100%; Ki (CB1 receptor; Ki (nM)): 167 ± 32 nM
CCCCC(C)c1c(C)c(C(=O)NN2CCCCC2)nn1-c1ccc(Cl)cc1Cl (stereo not drawn) [Compound O-1559]				233							change in vivo at 30 mg/kg (mice [1]; Mus musculus, iv, at 30 mg/kg i.v., read-out: Max stim of spontaneous locomotor activity, Compound Alone): 118%; ED50 (mice [1]; Mus musculus, iv, read-out: SA: > dose, 50% activity not achieved at this highest dose tested): > 30 mg/kg; Max % inhibit of spontaneous locomotor activity, Compound Alone (in words: stimulation instead of inhibition) (mice [1]; doses in mg/kg): stim at 3, 10 & 30; ED50 (mice [2]; read-out: TF: > dose, 50% activity not achieved at this highest dose tested): > 30 mg/kg; ED50 (mice [3]; read-out: RT: > dose, 50% activity not achieved at this highest dose tested): > 30 mg/kg
CCCCCc1ccc(-c2c(-c3ccc(Cl)cc3Cl)nn(C(=O)NN3CCCCC3)c2Br)cc1 [Compound O-1691, N-(N-Piperdyl)-3-(2,4-dichlrophenyl)-4-(4′-pentylphenyl)-5-bromopyrazole-carboxamide]				1.5 ± 0.22			66% (1)	>30	>30	>30	Max % inhibit of spontaneous locomotor activity, Compound Alone (mice [1]; at 3 mg/kg i.v.): 15% (3); Max % inhibit of spontaneous locomotor activity, Compound with 3 mg/kg Δ^9-THC (mice [4]; at 0.1 mg/kg i.v.): 91% (0.1); SA: maximum % antagonism of 3 mg/kg Δ^9-THC (mice [4]; at 0.3 mg/kg i.v.): 6% (0.3); Max stim of spontaneous locomotor activity, Compound with 3 mg/kg Δ^9-THC (mice [4]; at 3 mg/kg i.v.): 150% (3)
N-(N-Piperdyl)-3-(2,4-dichlrophenyl)-4-(4″-pentylphenyl)-5-iodopyrazole-carboxamide [Compound O-1704]				2.2			57% (1)	>30	>30	>30	Max % inhibit of spontaneous locomotor activity, Compound Alone (mice [1]; at 30 mg/kg i.v.): 19% (30); Max % inhibit of spontaneous locomotor activity, Compound with 3 mg/kg Δ^9-THC (mice [4]; at 0.3 mg/kg i.v.): 85% (0.3); SA: maximum % antagonism of 3 mg/kg Δ^9-THC (mice [4]; at 3 mg/kg i.v.): 65% (3); Max stim of spontaneous locomotor activity, Compound with 3 mg/kg Δ^9-THC (mice [4]; at 10 mg/kg i.v.): 49% (10)
